Among the test systems are 786-0; MDA-MB-231; SW-620; Hs-578T; KM12; UACC-62; MDA-N; A549; OVCAR-4; SNB-19; NCI-H460; PC-3; LOX IMVI; MCF7; SK-MEL-5; SR; IGROV-1; NCI-H226; HT-29; T47D.
What all share (assay): NCI anticancer screen, dose series, 48 h

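Compound exposure: 48 hours, 5 concentrations, 96-well plates. Here, GI50 denotes the concentration required for 50% inhibition of growth.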 Active and inactive are the calls of the source. Rule as the data show it: active = GI50 up to about 1.1 µM and inactive = higher. A value given as a limit tells only on which side of the number the result lay.

From ChEMBL document CHEMBL1201862, “PubChem BioAssay data set” (2004) come the findings set out here.

Turning to `COc1cc(C2SCC(=O)N2c2ccc(Cl)cc2)cc(OC)c1OC` (stereo unspecified), the GI50 was > 58.5 µM (inactive) in the assay on 786-0; > 100 µM (inactive) in the assay with MDA-MB-231; 19 µM (inactive) with SW-620; > 100 µM (inactive) in the assay on Hs-578T; 3.38 µM (inactive) in the assay on KM12; < 0.0205 µM (active) in the assay on UACC-62. The GI50 was 3.05 µM (inactive) with MDA-N; > 100 µM (inactive) in the assay with A549; 5.81 µM (inactive) with OVCAR-4; > 100 µM (inactive) in the assay with SNB-19; 3.7 µM (inactive) in the assay with NCI-H460; 46.2 µM (inactive) in the assay on PC-3. Besides, the GI50 in the assay on LOX IMVI is 1.03 µM (active); in the assay with MCF7, 5.22 µM (inactive); with SK-MEL-5, 1.26 µM (inactive); in the assay with SR, 1.12 µM (active); with IGROV-1, 20.7 µM (inactive); in the assay with NCI-H226 it was > 49.1 µM (inactive).

Turning to `CCSc1nc(N2CCCC2)s[s+]1.[O-][Cl+3]([O-])([O-])[O-]`, the GI50 with 786-0 was 58.1 µM (inactive); with MDA-MB-231, 44.6 µM (inactive); with SW-620, 34.4 µM (inactive); with Hs-578T, 40.6 µM (inactive); with KM12, 39.4 µM (inactive); in the assay with UACC-62, 0.684 µM (active). In addition, the GI50 was 16.3 µM (inactive) in the assay on MDA-N; 18.9 µM (inactive) in the assay with A549; 50.8 µM (inactive) in the assay on OVCAR-4; > 100 µM (inactive) in the assay with SNB-19; 0.225 µM (active) in the assay on NCI-H460; 31.7 µM (inactive) in the assay with PC-3. The GI50 in the assay on LOX IMVI was 19.1 µM (inactive); in the assay on MCF7 it was 0.167 µM (active); with SK-MEL-5, 0.08 µM (active); with SR it was 1.04 µM (active); in the assay on IGROV-1, 4.07 µM (inactive); with NCI-H226 it was 63.4 µM (inactive). In addition, the GI50 in the assay on HT-29 was 0.582 µM (active).

As for `COc1ccc(/C=C/c2sc3ccccc3[n+]2CCCCI)cc1OC`, the GI50 with 786-0 was > 10 µM (inactive); with MDA-MB-231 it was > 10 µM (inactive); in the assay on SW-620, 7.01 µM (inactive); with Hs-578T, > 10 µM (inactive); in the assay with KM12 it was 6.25 µM (inactive); with UACC-62, 6.32 µM (inactive). Also, the GI50 with MDA-N is 5.97 µM (inactive); with A549, > 10 µM (inactive); in the assay on OVCAR-4, > 10 µM (inactive); in the assay on SNB-19, > 10 µM (inactive); in the assay with NCI-H460 it was > 10 µM (inactive); in the assay on PC-3, 3.33 µM (inactive). Besides, the GI50 in the assay with LOX IMVI was > 10 µM (inactive); in the assay with MCF7, > 10 µM (inactive); with SK-MEL-5 it was 5.55 µM (inactive); with IGROV-1 it was > 10 µM (inactive); in the assay with NCI-H226, > 10 µM (inactive); in the assay on HT-29 it was > 10 µM (inactive).

Regarding `O=c1[nH]c2ccccc2c(=O)n1/N=C/c1ccc(O)cc1`, the GI50 in the assay with 786-0 was 30.8 µM (inactive); in the assay with MDA-MB-231 it was 45.5 µM (inactive); with SW-620 it was > 100 µM (inactive); with Hs-578T, 31.7 µM (inactive); with KM12 it was > 100 µM (inactive); in the assay with UACC-62, 42.4 µM (inactive). The GI50 in the assay with A549 was > 100 µM (inactive); in the assay on SNB-19 it was 36 µM (inactive); with NCI-H460, > 100 µM (inactive); with T47D it was > 100 µM (inactive); in the assay with PC-3 it was 73.5 µM (inactive); with LOX IMVI, 60.4 µM (inactive). The GI50 in the assay on MCF7, in the assay with SK-MEL-5, with SR, in the assay with IGROV-1, in the assay on NCI-H226 and with HT-29 was > 100 µM (inactive) in each case.

Take `Cc1ccc(S(=O)(=O)N[C@@H](Cc2ccccc2)C(=O)CCl)cc1` [TPCK]: the GI50 in the assay on 786-0 is 13.9 µM (inactive); in the assay with MDA-MB-231 it was 14.2 µM (inactive); in the assay on SW-620, 11.5 µM (inactive); with Hs-578T it was 1.82 µM (inactive); with UACC-62, 13.6 µM (inactive); with MDA-N it was 14.3 µM (inactive). For the same compound, the GI50 in the assay with A549 is 15.7 µM (inactive); in the assay on OVCAR-4, 4.93 µM (inactive); in the assay on SNB-19 it was 16.9 µM (inactive); with NCI-H460, 15.5 µM (inactive); in the assay with PC-3, 15.4 µM (inactive); in the assay with LOX IMVI it was 7.08 µM (inactive). The GI50 in the assay with MCF7 was 10.5 µM (inactive); in the assay on SK-MEL-5, 12.2 µM (inactive); in the assay on IGROV-1, 14.9 µM (inactive); in the assay with NCI-H226, 15.2 µM (inactive); in the assay with HT-29, 14.9 µM (inactive).

With `COc1cc2cc(C(=O)N3CC(CCl)c4ccc([N+](=O)[O-])cc43)[nH]c2c(OC)c1OC` (stereo unspecified), the GI50 with 786-0 was > 100 µM (inactive); with MDA-MB-231, > 100 µM (inactive); in the assay on SW-620, > 100 µM (inactive); in the assay with Hs-578T it was 74.5 µM (inactive); in the assay on KM12, > 100 µM (inactive); in the assay with UACC-62, > 100 µM (inactive). Besides, the GI50 with A549 is > 100 µM (inactive); with OVCAR-4, 29.2 µM (inactive); with SNB-19 it was > 100 µM (inactive); in the assay with T47D, > 100 µM (inactive); in the assay with PC-3, > 100 µM (inactive); with LOX IMVI it was > 100 µM (inactive). In addition, the GI50 is > 100 µM (inactive) in the assay with MCF7, > 100 µM (inactive) with SK-MEL-5, > 100 µM (inactive) in the assay with IGROV-1 and 17.4 µM (inactive) in the assay on HT-29.

Take `CC(=O)O/C=C1/C[C@H]2[C@@H]3CCC4CC(C(C)=O)CC[C@]4(C)[C@H]3CC[C@]2(C)C1=O` (stereo partly specified): the GI50 with 786-0 is 68.2 µM (inactive); with MDA-MB-231, > 100 µM (inactive); in the assay on SW-620, > 100 µM (inactive); in the assay on KM12, 33.7 µM (inactive); with UACC-62, > 100 µM (inactive); in the assay with MDA-N it was 88.1 µM (inactive). Further, the GI50 in the assay on OVCAR-4 is > 100 µM (inactive); in the assay on SNB-19 it was 53.2 µM (inactive); in the assay with NCI-H460, > 100 µM (inactive); with PC-3 it was > 100 µM (inactive); in the assay on LOX IMVI, 33.3 µM (inactive); in the assay with MCF7, 38 µM (inactive). In addition, the GI50 with SK-MEL-5 is 47.2 µM (inactive); in the assay with SR it was 44.1 µM (inactive); in the assay on IGROV-1 it was 88.9 µM (inactive); in the assay on NCI-H226 it was > 100 µM (inactive); with HT-29 it was 51.4 µM (inactive).

As to `COc1ccc(O[C@H](COCc2ccccc2)C[C@@H]2COC(C)(C)O2)cc1`, the GI50 in the assay on 786-0, in the assay on MDA-MB-231, with SW-620, in the assay with KM12, with UACC-62 and in the assay with MDA-N was > 100 µM (inactive) in each case. The GI50 with A549, in the assay on OVCAR-4, in the assay with SNB-19, in the assay on NCI-H460, with PC-3 and in the assay with LOX IMVI was > 100 µM (inactive) throughout. Besides, the GI50 in the assay on MCF7, in the assay with SK-MEL-5, with SR, with IGROV-1, with NCI-H226 and with HT-29 was > 100 µM (inactive) in each case.
